# Reference: patent publication US20030096237A1, “Determination of the ability of patients to respond to a tumor treatment” (priority 2000, published 2003)
# Test system: CNCM I-2545
# Assay: oligonucleotide array analysis of IFN-α modulated gene expression
# Format: cell-based, human
# Design: key to nAD M94880 mhc class i (hla-a*8001): normalized average difference between perfect and mismatch probeset signals
# Description: All these cell lines were cultured in RPMI medium supplemented with 10% FCS, glutamine (2 mM), sodium pyruvate (1 mM), non-essential amino acids and HEPES buffer (10 mM) (all from GIBCO Life Sciences, Paisley, UK). When confluent, the cells were passaged by trypsinization.
# Cultured melanoma cells were harvested by scraping and total cellular RNA was extracted. 10 μg from each sample were used directly as templates for cDNA synthesis using a commercial kit (Roche Molecular Biochemicals, Rotkreuz, Switzerland). The T7 promoter sequence incorporated into the cDNA synthesis primer allowed template amplification and biotin labeling by in vitro transcription using a commercial kit (Affymetrix, Santa Clara, Calif.). After alkaline heat fragmentation […] was hybridised to the array (Affymetrix, Santa Clara, Calif.) and all subsequent steps were performed following standard procedures as supplied with the arrays. Raw data were collected with a confocal laser scanner (Hewlett Packard, Palo Alto, Calif.) using GeneChip software v3.1 (Affymetrix, Santa Clara, Calif.).
# Raw data were normalized based on the total chip signal obtained upon hybridisation of ME15 cell line cDNA. This array was selected because: i) the 5′/3′ intensity ratio of control genes was smaller than 3; ii)>25% of the genes are called “present” by Genechip; iii) the image appearance is homogeneous with low background and no sign of mechanical chip damage.
# The normalized average difference (nAD) between the signals of the perfect and of the mismatch probesets for each gene was used as the expression level of a given gene. At least one nAD value in a pairwise comparison of data has to exceed 50 to be included. Based on nAD, change factors related to IFN-α exposure were also calculated. Negative nAD values were set to 20 in order to avoid the calculation of artificially high modifications. In order to exclude artefacts, only genes with robust change factors, greater than 2-fold, were included in the analysis. […] Genes were clustered according to their mode of regulation.
# Total cellular RNA was extracted from the sensitive and resistant melanoma cell lines identified above, reverse transcribed and processed for hybridization to an oligonucleotide array (Hu6800FL, PN 900183) containing probe sets derived from 7000 full-length human genes. Expression levels for each gene were calculated as normalized average difference (nAD, see materials and methods).
# Patterns of genes expressed in IFN-α sensitive and resistant melanoma cell lines were investigated upon 48 hour culture in the presence of IFN-α. CNCM I-2546 and CNCM I-2545 were studied in detail.
# In Table 2 below, CNCM I-2546 and CNCM I-2545 cultured for 48 hours in the absence or in the presence of 100 U/ml IFN-α were used to assay cytokine modulated gene expression as matched with data obtained in fibrosarcoma cells. This analysis yielded six clusters of genes. […] Data are presented as average difference of signal intensity between match and mismatch probesets.
# In Table 3 below, CNCM I-2546 and CNCM I-2545 cell lines cultured for 48 hours in the absence or in the presence of 100 U/ml IFN-α were used to identify novel cytokine induced genes whose expression was not found to be modulated in fibrosarcoma cells. Cluster 1 includes genes inducible in the CNCM I-2546 sensitive but not in the CNCM I-2545 resistant cell line. Cluster 2 comprises genes inducible in both lines. Data are presented as average difference of signal intensity between match and mismatch probesets.
# [1] = CNCM I-2545 (+) IFN-α 100 U/ml 48 hours, (−) 11
# [2] = CNCM I-2545 (+) IFN-α 100 U/ml 48 hours, (−) 106
# [3] = CNCM I-2545 (+) IFN-α 100 U/ml 48 hours, (−) 115
# [4] = CNCM I-2545 (+) IFN-α 100 U/ml 48 hours, (−) 234
# [5] = CNCM I-2545 (+) IFN-α 100 U/ml 48 hours, (−) 238
substance,measurement,setting,value
IFN-α,nAD X15949 interferon regulatory factor-2 (irf-2),"CNCM I-2545 (+) IFN-α 100 U/ml 48 hours, (−) 0",13
same,nAD M92642 alpha-1 type xvi collagen (col16a1),[1],115
same,nAD U18018 ela enhancer binding protein (ela-f),[1],23
same,nAD M30818 interferon-induced cellular resistance mediator protein,"CNCM I-2545 (+) IFN-α 100 U/ml 48 hours, (−) 20",5
same,nAD L07633 interferon-gamma,"CNCM I-2545 (+) IFN-α 100 U/ml 48 hours, (−) 22",275
same,"nAD X70848 protein phosphatase 1, catalytic subunit","CNCM I-2545 (+) IFN-α 100 U/ml 48 hours, (−) 24",226
same,nAD D28137 bst-2,"CNCM I-2545 (+) IFN-α 100 U/ml 48 hours, (−) 37",88
same,nAD J03909 gamma-interferon-inducible protein (ip-30),"CNCM I-2545 (+) IFN-α 100 U/ml 48 hours, (−) 42",142
same,nAD L42243 ifnar2 gene (interferon receptor),"CNCM I-2545 (+) IFN-α 100 U/ml 48 hours, (−) 62",−6
same,nAD J04182 lysosomal membrane glycoprotein-1 (lamp1),"CNCM I-2545 (+) IFN-α 100 U/ml 48 hours, (−) 66",484
same,"nAD D78132 rheb gene, ras-related gtp binding protein gene","CNCM I-2545 (+) IFN-α 100 U/ml 48 hours, (−) 88",253
same,nAD Z56281 interferon regulatory factor 3,"CNCM I-2545 (+) IFN-α 100 U/ml 48 hours, (−) 93",31
same,nAD U53830 interferon regulatory factor 7a,"CNCM I-2545 (+) IFN-α 100 U/ml 48 hours, (−) 103",5
same,nAD L40387 thyroid receptor interactor (trip14),"CNCM I-2545 (+) IFN-α 100 U/ml 48 hours, (−) 104",5
same,nAD J00212 leukocyte interferon (ifn-alpha),[2],9
same,nAD U50648 interferon-inducible rna-dependent protein kinase (pkr),[2],46
same,nAD U69126 fuse binding protein 2 (fbp2),"CNCM I-2545 (+) IFN-α 100 U/ml 48 hours, (−) 114",159
same,nAD M60784 ul snrnp-specific protein,[3],413
same,nAD U70063 human acid ceramidase,[3],400
same,nAD U72882 interferon-induced leucine zipper protein (ifp35),"CNCM I-2545 (+) IFN-α 100 U/ml 48 hours, (−) 125",27
same,nAD X76538 mpv17,"CNCM I-2545 (+) IFN-α 100 U/ml 48 hours, (−) 132",101
same,"nAD M19650 2′,3′-cyclic nucleotide 3prime-phosphodiesterase","CNCM I-2545 (+) IFN-α 100 U/ml 48 hours, (−) 137",99
same,nAD X57522 ring4 cdna,"CNCM I-2545 (+) IFN-α 100 U/ml 48 hours, (−) 143",49
same,nAD M65028 heterogeneous nuclear ribonucleoprotein a/b,"CNCM I-2545 (+) IFN-α 100 U/ml 48 hours, (−) 154",353
same,nAD K01900 lymphocyte interferon alpha type 201,"CNCM I-2545 (+) IFN-α 100 U/ml 48 hours, (−) 156",7
same,nAD U78525 human eukaryotic translation initiation factor (eif3),"CNCM I-2545 (+) IFN-α 100 U/ml 48 hours, (−) 165",372
same,nAD M79462 pml-1,"CNCM I-2545 (+) IFN-α 100 U/ml 48 hours, (−) 201",11
same,nAD L37043 casein kinase i epsilon,"CNCM I-2545 (+) IFN-α 100 U/ml 48 hours, (−) 218",221
same,nAD X04412 plasma gelsolin,"CNCM I-2545 (+) IFN-α 100 U/ml 48 hours, (−) 220",220
same,nAD X96401 rox protein,"CNCM I-2545 (+) IFN-α 100 U/ml 48 hours, (−) 229",83
same,nAD D50914 EST,[4],78
same,nAD X07730 prostate specific antigen,[4],85
same,nAD U72206 guanine nucleotide regulatory factor (lfp40),[5],162
same,nAD Z26491 gene catechol o-methyltransferase,[5],181
same,nAD U91316 acyl-coa thioester hydrolase,"CNCM I-2545 (+) IFN-α 100 U/ml 48 hours, (−) 253",428
same,nAD U51127 interferon regulatory factor 5,"CNCM I-2545 (+) IFN-α 100 U/ml 48 hours, (−) 262",91
same,nAD U52513 rig-g,"CNCM I-2545 (+) IFN-α 100 U/ml 48 hours, (−) 289",10
same,nAD M97935 transcription factor isgf-3,"CNCM I-2545 (+) IFN-α 100 U/ml 48 hours, (−) 331",92
same,nAD U01824 glutamate/aspartate transporter,"CNCM I-2545 (+) IFN-α 100 U/ml 48 hours, (−) 339",35
same,"nAD HG2917 major histocompatibility complex, class i, e","CNCM I-2545 (+) IFN-α 100 U/ml 48 hours, (−) 353",322
same,nAD X90846 mixed lineage kinase 2,"CNCM I-2545 (+) IFN-α 100 U/ml 48 hours, (−) 357",60
same,nAD M31013 nonmuscle myosin heavy chain (nmhc),"CNCM I-2545 (+) IFN-α 100 U/ml 48 hours, (−) 377",263
same,nAD D21235 hhr23a protein,"CNCM I-2545 (+) IFN-α 100 U/ml 48 hours, (−) 388",346
same,nAD Y00264 amyloid a4 precursor,"CNCM I-2545 (+) IFN-α 100 U/ml 48 hours, (−) 392",427
same,nAD Z47055 farnesyl pyrophosphate synthetase like,"CNCM I-2545 (+) IFN-α 100 U/ml 48 hours, (−) 394",797
same,nAD U50327 protein kinase c substrate 80k-h gene (prkcsh),"CNCM I-2545 (+) IFN-α 100 U/ml 48 hours, (−) 401",236
same,nAD U61263 acetolactate synthase homolog,"CNCM I-2545 (+) IFN-α 100 U/ml 48 hours, (−) 410",301
same,nAD M34338 spermidine synthase,"CNCM I-2545 (+) IFN-α 100 U/ml 48 hours, (−) 472",277
same,nAD D49824 hla-b null allele,"CNCM I-2545 (+) IFN-α 100 U/ml 48 hours, (−) 527",267
same,nAD M94880 mhc class i (hla-a*8001),"CNCM I-2545 (+) IFN-α 100 U/ml 48 hours, (−) 551",421
same,nAD HG1612 macmarcks,"CNCM I-2545 (+) IFN-α 100 U/ml 48 hours, (−) 588",505
same,nAD U65579 mitochondrial nadh dehydrogenase-ubiquinone,"CNCM I-2545 (+) IFN-α 100 U/ml 48 hours, (−) 630",621
same,nAD X95325 dna binding protein a variant,"CNCM I-2545 (+) IFN-α 100 U/ml 48 hours, (−) 634",253
same,nAD U47025 fetal brain glycogen phosphorylase b,"CNCM I-2545 (+) IFN-α 100 U/ml 48 hours, (−) 672",465
same,nAD U18009 chromosome 17q21 clone lf113,"CNCM I-2545 (+) IFN-α 100 U/ml 48 hours, (−) 674",423
same,nAD J04444 cytochrome c-1 gene,"CNCM I-2545 (+) IFN-α 100 U/ml 48 hours, (−) 886",2268
same,"nAD HG658 major histocompatibility complex, class 1 c","CNCM I-2545 (+) IFN-α 100 U/ml 48 hours, (−) 1183",455
same,nAD D32050 alanyl-trna synthetase,"CNCM I-2545 (+) IFN-α 100 U/ml 48 hours, (−) 1458",761
same,nAD J00105 beta-2 microglobulin gene,"CNCM I-2545 (+) IFN-α 100 U/ml 48 hours, (−) 1668",2101
same,nAD X57351 1-8d gene from interferon-inducible gene family,"CNCM I-2545 (+) IFN-α 100 U/ml 48 hours, (−) 2469",2686
same,nAD U65932 extracellular matrix protein 1 (ecm1),"CNCM I-2545 (+) IFN-α 100 U/ml 48 hours, (−) 2498",1066
same,nAD L13210 mac-2 binding protein,"CNCM I-2545 (+) IFN-α 100 U/ml 48 hours, (−) 2555",2092
same,nAD K03515 neuroleukin,"CNCM I-2545 (+) IFN-α 100 U/ml 48 hours, (−) 2998",2552
same,nAD M98343 amplaxin (ems1),"CNCM I-2545 (+) IFN-α 100 U/ml 48 hours, (−) −24",63
same,"nAD L35249 vacuolar h + -atpase mr 56,000 subunit (ho57)","CNCM I-2545 (+) IFN-α 100 U/ml 48 hours, (−) −40",357
same,nAD U09579 melanoma differentiation associated (mda-6),"CNCM I-2545 (+) IFN-α 100 U/ml 48 hours, (−) −59",−26
same,nAD U41515 dss1,"CNCM I-2545 (+) IFN-α 100 U/ml 48 hours, (−) −62",123
same,nAD S81914 iex-1 = radiation-inducible immediate-early gene,"CNCM I-2545 (+) IFN-α 100 U/ml 48 hours, (−) −66",21
same,nAD M13755 interferon-induced 17-kda/15-kda protein,"CNCM I-2545 (+) IFN-α 100 U/ml 48 hours, (−) −163",31
same,"nAD U22970 16-jun gene, interferon-inducible peptide (6-16)","CNCM I-2545 (+) IFN-α 100 U/ml 48 hours, (−) −190",24
same,nAD J04164 interferon-inducible protein 27-sep,"CNCM I-2545 (+) IFN-α 100 U/ml 48 hours, (−) −447",−97
same,nAD X67325 p27,"CNCM I-2545 (+) IFN-α 100 U/ml 48 hours, (−) −460",−86
same,change factor (CF) D21235 hhr23a protein,"CNCM I-2545, IFN-α 100 U/ml 48 hours",−0.12
